Key:
[1] = test system: ability of TGF-β to promote transcription of a Type I collagen gene; assay: Inhibition of the ability of TGF-β to promote transcription of a Type I collagen gene (COL-Luc reporter gene assay); type: cell-based; details: final concentration 1 μM; TGF-β added; normal human fetal skin fibroblast transfected with COL-Luc; 40 hours; read-out: Inhibition percentage
Experimental: 1×10^8 cells of a normal human fetal skin fibroblast (Clontech, catalogue No. CC-2509) were cultured at 37° C. overnight under 5% CO2 atmosphere. After the cultured cells were washed with a sodium phosphate buffer (hereinafter, referred to as PBS) twice, 3 ml of PBS was added thereto and the cells were scraped away the wall of a vessel using a cell scraper (Nalgen, catalogue No. 179693). The scraped cells were collected by centrifugation (1,500 rpm, 4° C., 15 min), and these were suspended in 20 ml of PBS and centrifuged again. To the resulting precipitates were added 11 ml of Solution 2 and 4.8 μl of pronase of DNA Extraction Kit (Stratagene, catalogue No. 200600). After shaken at 60° C. for 1 hour, the resulting mixture was allowed to stand in ice for 10 minutes. Then, 4 ml of Solution 3 of the kit was added to the mixture. After mixed, the mixture was allowed to stand in ice for 5 minutes and then centrifuged (3,000 rpm, 4° C., 15 min) to recover a supernatant. To the recovered supernatant was added 2 μl of RNase per 1 ml of the supernatant and the mixture was allowed to stand at 37° C. for 15 minutes. To the mixture was added 2-fold volume of ethanol. After mixed, a white thread-like substance (genomic DNA) appeared and the substance was recovered. The recovered genomic DNA was washed with 70% ethanol and then air-dried. The air-dried genomic DNA was dissolved in 500 μl of 10 mM Tris-HCl, 1 mM EDTA (pH 8.0) (hereinafter, referred to as TE).
The resulting genomic DNA solution (the amount equivalent to 1 μg of genomic DNA), each 1 μl (10 pmol/μl) of an oligonucleotide consisting of the nucleotide sequence represented by SEQ ID No:1 and an oligonucleotide consisting of the nucleotide sequence represented by SEQ ID No:2, 29 μL of distilled water, 5 μl of the buffer attached to TaKaRa LA Taq (TAKARA SHUZO, catalogue No. RR002A), 5 μL of a Mg^2+ solution, 5 μL of a dNTP mixture and 0.5 μl of TaKaRa LA Taq (TAKARA SHUZO, catalogue No. RR002A) were mixed. After the resulting mixed solution was incubated at 94° C. for 5 minutes, the mixed solution was subjected to 30 cycles, in which one cycle consists of incubation at 94° C. for 1 minute, at 60° C. for 1 minute and then at 72° C. for 1 minute. The mixed solution was electrophoresed on a 2% agarose gel to recover about 0.5 kb of a DNA. The recovered DNA was treated with phenol/chloroform and then precipitated with ethanol to recover the DNA. The resulting DNA was dissolved in ultrapure water. To this solution were added 2.5 μl of NheI and 2.5 μl of HindIII, and then incubated at 37° C. for 3 hours. Then, the solution was electrophoresed on a 2% agarose gel to recover about 3.5 kb of a DNA. The recovered DNA was precipitated with ethanol to recover again the DNA (hereinafter, referred to as the collagen promoter DNA).
On the other hand, the vector pGL3 (Promega, catalogue No. E1751) having the nucleotide sequence encoding firefly luciferase was digested with NheI and HindIII, and then subjected to agarose gel electrophoresis as described above to recover about 5 kb of a DNA. The recovered DNA was precipitated with ethanol to recover the DNA again. To the recovered DNA were added 44 μl of distilled water, 5 μl of Buffer attached to Alkaline Phosphatase (TAKARA SHUZO, catalogue No. 2120A) and 1 μl of Alkaline Phosphatase (TAKARA SHUZO, catalogue No. 2120A). The mixed solution was incubated at 65° C. for 30 minutes. Then, the mixed solution was treated with phenol/chloroform twice, and precipitated with ethanol to recover the DNA (hereinafter referred to as the Luc vector DNA). Then, after about 20 ng of the collagen promoter DNA and about 20 ng of the Luc vector DNA were mixed, the same amount of a DNA Ligation kit Ver2 enzyme solution was added and this was incubated overnight at 16° C. To the mixed solution was added Escherichia coli 5Hdα (TOYOBO, catalogue No. DNA-903), this was allowed to stand in ice for 30 minutes, and then incubated at 42° C. for 45 seconds. […]

[2] = test system: mRNA of Type I collagen gene in renal glomerulus; assay: mRNA of Type I collagen gene in renal glomerulus of anti-Thy-1 antibody-administered rats (improvement of chronic renal failure); type: in vivo, rat; details: for ability to improve chronic renal failure: anti-Thy-1 antibody rats; for mRNA of collagen gene: Type I collagen amount/GAPDH amount, renal cortex, anti-Thy-1 antibody +
Experimental: IgG was purified from an ascites-lyophilized powder (CEDARLANE, lot No. 05122) containing an anti-rat CD90 (Thy1.1) monoclonal antibody using MAbTrap kit (Amersham Biosciences, catalogue No. 17-1128-01).
6 ml of a binding buffer was added to 3 ml of ascites to sufficiently recover it, and this was passed through a 0.22 μm filter. The resulting solution was applied to a pre-bufferized column, and the column was then washed with 10 ml of a binding buffer. Thereafter, the column was eluted with 5 ml of an elution buffer. From washing, each 1 ml was fractionated, and the protein concentration of each fraction was measured using bovine serum albumin as a standard. A single peak was confirmed from an elution pattern, and an IgG fraction was dialyzed against a physiological saline overnight at 4° C. The protein concentration of the resulting anti-Thy-1 antibody (IgG) was calculated.
The present compounds represented by the compound numbers (28a) (hereinafter, referred to as the present compound (28a)), the present compound represented by a compound number (30a) (hereinafter, referred to as the present compound (30a)), the present compound represented by a compound number (33a) (hereinafter, referred to as the present compound (33a)), the present compound represented by a compound number (10e) (hereinafter, referred to as the present compound (10e)), the present compound represented by a compound number (18e) (hereinafter referred to as the present compound (18e)), the present compound represented by a compound number (31e) (hereinafter, referred to as the present compound (31e)) and a corn oil which is a medium were weighed. These were mixed using a mortar and a pestle to prepare a […]. Using four 7-week old male Wistar rats [Nippon Charles River] per group, 60 μg/ml of the anti-Thy-1 antibody (IgG) or a physiological saline was intravenously injected via a tail vein at 5 ml/kg. […] A dose of the present compound was 15 mg/kg/day.
On the next day of final administration, a rat reared as described in the above (2) was slaughtered by collection of whole blood, and kidneys were isolated. A whole RNA was separated from the cortex of the isolated kidney using RNeasy Mini Kit (QIAGEN, catalogue No. 74106). To 5 μl (50 ng) of the separated whole RNA were added 1 μl of 20 μM oligo dT and 4 μl of RNase-free distilled water. After the mixture was incubated at 65° C. for 5 minutes, it was immediately ice-cooled. To 10 μl of the solution were added 4 μl of 5× buffer, 2.4 μl of MgCl2, 1 μl of 10 mM dNTP, 1 μl of RNasin, 1 μl of Improm II and 0.6 μl of RNase-free distilled water (all available from Promega), and a reverse transcription reaction was performed under the condition of at 25° C. for 5 minutes, at 42° C. for 1 hour, and at 70° C. for 15 minutes.
Into 5 μl of the reverse transcription reaction solution were mixed each 2 μl of each 1.25 pmol/μl of primers represented by SEQ ID NOS: 3 and 4, 1.25 μl of a probe (FAM-ctcgccttca tgcgcctgct agc-TAMRA) for detecting DNA of a Type I collagen gene represented by SEQ ID No:5, each 0.25 μl of Rodent GAPDH primers, 0.25 μl of a Rodent GAPDH probe, 12.5 μl of TaqMan Universal PCR Master Mix (all available from Applied Biosystem) and 1.5 μl of sterilized water in a well of Optical 96-Well Reaction Plate (Applied Biosystem, catalogue No. N801-0560). As a standard, in place of 5 μl of the reverse transcription reaction solution, each 5 μl of 500, 250, 125, 62.5, 31.25, 15.625 ng/μl rat renal cortex cDNA which had been prepared in advance was used. Thereafter, using Gene Amp 7900 (Applied Biosystem), PCR was performed under the condition of at 50° C. for 5 minutes, and 40 cycles in which one cycle is at 95° C. for 15 seconds and at 60° C. for 1 minute. […]

[3] = Example 5, 15 mg/kg/day orally for 7 days in corn oil
[4] = Table 4, 15 mg/kg/day orally for 7 days in corn oil, Wistar rats, control group 5.6, normal group 1.7, test results p < 0.01

| SMILES | inhibition at 1 µM [1] | ability to improve chronic renal failure [2, 3] | mRNA of collagen gene [2, 4] | mRNA of collagen gene ([2]; Table 3, 15 mg/kg/day orally for 7 days in corn oil, Wistar rats, control group 3.4, normal group 1.9, test results p < 0.05) | ability to improve chronic renal failure ([2]; Example 6, orally for 7 days in 0.5% aqueous methylcellulose solution) | mRNA of collagen gene ([2]; Table 5 (Example 6), orally for 7 days in 0.5% aqueous methylcellulose solution, 10 Wistar rats per group, control group 2.1, normal group 1.0, test results p < 0.01) |
| --- | --- | --- | --- | --- | --- | --- |
| N#CCOc1cccc(C=CC(=O)c2c(O)c3ccccc3[nH]c2=O)c1 [Compound No. (10e), 4-hydroxy-3-[3-[3-(cyanomethoxy)phenyl]-1-oxo-2-propenyl]-2(1H)-quinolinone] | ≥ 70% | have the ability to improve chronic renal failure | 2.0 |  |  |  |
| COCC(=O)Nc1cccc(C=CC(=O)c2c(O)c3ccccc3[nH]c2=O)c1 [Compound No. (18e), 4-hydroxy-3-[3-[3-(methoxyacetylamino)phenyl]-1-oxo-2-propenyl]-2(1H)-quinolinone] | ≥ 70% | have the ability to improve chronic renal failure | 1.9 |  |  |  |
| COC(=O)CNC(=O)c1cccc(C=CC(=O)c2c(O)cc(C)[nH]c2=O)c1 [Compound No. (28a), 4-hydroxy-3-[3-[3-[[(methoxycarbonylmethyl)amino]carbonyl]phenyl]-1-oxo-2-propenyl]-6-methyl-2(1H)-pyridinone] | ≥ 70% | have the ability to improve chronic renal failure |  | 2.0 |  |  |
| COCCNC(=O)c1ccc(C=CC(=O)c2c(O)c3ccccc3[nH]c2=O)cc1 [Compound No. (31e), 4-hydroxy-3-[3-[4-[(2-methoxyethyl)aminocarbonyl]phenyl]-1-oxo-2-propenyl]-2(1H)-quinolinone] | ≥ 70% | have the ability to improve chronic renal failure | 3.3 |  |  |  |
| Cc1cc(O)c(C(=O)C=Cc2cccc(OCC(=O)O)c2)c(=O)n1C [Compound No. (37a), 4-hydroxy-3-[3-[3-(carboxymethoxy)phenyl]-1-oxo-2-propenyl]-1,6-dimethyl-2(1H)-pyridinone] |  |  |  |  | has the ability to improve chronic renal failure | 1.5 |
